These results are taken from ChEMBL document CHEMBL5143563, “Discovery of DS-3801b, a non-macrolide GPR38 agonist with N-methylanilide structure” (Bioorg Med Chem Lett, 2022).

Each structure is given as a SMILES string. Some results are limits rather than exact numbers.

A short description of series [1]: Agonist activity at rabbit GPR38 expressed in COS-7 cells. The class given is cell-based. The note with it: Oryctolagus cuniculus.
Series [2] can be described thus: Lipophilicity, logD of the compound at pH 7.4. To be noted: buffer.
The target in series [3] is T1, Motilin receptor (Homo sapiens, UniProt O43193). The series is described as follows: Agonist activity at human GPR38 expressed in COS-7 cells. The class given is functional, cell-based.
T1 sequence (O43193 whole entry): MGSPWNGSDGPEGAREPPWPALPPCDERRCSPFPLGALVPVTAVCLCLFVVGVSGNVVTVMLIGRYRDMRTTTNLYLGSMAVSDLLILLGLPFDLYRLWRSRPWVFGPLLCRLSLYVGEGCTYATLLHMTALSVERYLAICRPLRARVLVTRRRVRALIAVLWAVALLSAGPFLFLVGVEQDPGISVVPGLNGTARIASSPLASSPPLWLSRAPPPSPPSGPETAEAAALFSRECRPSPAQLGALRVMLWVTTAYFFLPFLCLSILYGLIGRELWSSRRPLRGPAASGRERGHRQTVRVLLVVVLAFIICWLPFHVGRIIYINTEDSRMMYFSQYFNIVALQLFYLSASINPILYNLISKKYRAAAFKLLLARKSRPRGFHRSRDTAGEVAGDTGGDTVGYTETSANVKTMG
The target in series [4] is T2, CYP3A4 (Homo sapiens, UniProt P08684). The series is described as follows: Inhibition of CYP3A4 in human liver microsomes assessed as remaining activity. On the set-up: concentration or dose not given beside the values. The class given is ADME, Microsome.
T2 sequence (P08684 whole entry): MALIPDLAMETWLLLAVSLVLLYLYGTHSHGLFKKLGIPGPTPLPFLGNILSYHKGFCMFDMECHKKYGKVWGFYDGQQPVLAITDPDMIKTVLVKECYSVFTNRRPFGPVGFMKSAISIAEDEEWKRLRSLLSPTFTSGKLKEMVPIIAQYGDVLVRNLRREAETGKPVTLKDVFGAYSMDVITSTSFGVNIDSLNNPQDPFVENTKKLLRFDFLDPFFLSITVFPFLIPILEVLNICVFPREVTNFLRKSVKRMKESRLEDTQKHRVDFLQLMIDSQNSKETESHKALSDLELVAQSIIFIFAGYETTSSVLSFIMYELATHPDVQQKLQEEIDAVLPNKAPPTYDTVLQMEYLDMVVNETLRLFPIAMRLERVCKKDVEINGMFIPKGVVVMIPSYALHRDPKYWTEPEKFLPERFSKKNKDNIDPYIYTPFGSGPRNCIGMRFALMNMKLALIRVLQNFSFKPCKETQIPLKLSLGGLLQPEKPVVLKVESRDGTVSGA
The nature of series [5]: Ex vivo agonist activity at GPR38 in rabbit duodenum muscle tissue assessed as intestinal contractile activity. The class given is tissue-based, Oryctolagus cuniculus.
The target of a further series is T3, CYP1A2 (Homo sapiens, UniProt P05177).
T3 sequence (P05177 whole entry): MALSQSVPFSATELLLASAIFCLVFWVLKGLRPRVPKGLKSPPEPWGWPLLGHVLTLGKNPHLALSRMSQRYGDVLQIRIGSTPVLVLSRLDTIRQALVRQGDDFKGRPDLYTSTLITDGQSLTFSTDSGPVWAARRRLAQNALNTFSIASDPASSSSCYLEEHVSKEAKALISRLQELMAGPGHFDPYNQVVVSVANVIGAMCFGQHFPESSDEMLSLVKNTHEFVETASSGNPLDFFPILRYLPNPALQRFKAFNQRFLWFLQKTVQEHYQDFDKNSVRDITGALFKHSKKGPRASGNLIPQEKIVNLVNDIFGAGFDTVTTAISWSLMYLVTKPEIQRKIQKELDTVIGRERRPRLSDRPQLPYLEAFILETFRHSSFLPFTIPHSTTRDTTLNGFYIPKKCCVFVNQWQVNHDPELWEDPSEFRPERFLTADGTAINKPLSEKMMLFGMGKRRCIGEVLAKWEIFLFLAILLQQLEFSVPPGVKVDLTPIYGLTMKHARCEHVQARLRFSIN
The series is described as follows: Inhibition of CYP1A2 (unknown origin) at 10 uM. The class given is ADME.

Series [6] in a line: Effective permeability of the compound at pH 7.4 by PAMPA assay. The note with it: read-out: Peff. The class given is ADME. In general terms: PAMPA measures passive passage across an artificial lipid membrane.
The species named for another series is Oryctolagus cuniculus. The series is described as follows: Potency index, ratio of GSK962040 EC50 to test compound EC50 for Ex vivo agonist activity at GPR38 in rabbit duodenum muscle tissue. The class given is tissue-based.
Another series deals with CYP2C9 (Homo sapiens, UniProt P11712). The series is described as follows: Inhibition of CYP2C9 (unknown origin) at 10 uM. The format is ADME.
Sequence of CYP2C9 (P11712 whole entry): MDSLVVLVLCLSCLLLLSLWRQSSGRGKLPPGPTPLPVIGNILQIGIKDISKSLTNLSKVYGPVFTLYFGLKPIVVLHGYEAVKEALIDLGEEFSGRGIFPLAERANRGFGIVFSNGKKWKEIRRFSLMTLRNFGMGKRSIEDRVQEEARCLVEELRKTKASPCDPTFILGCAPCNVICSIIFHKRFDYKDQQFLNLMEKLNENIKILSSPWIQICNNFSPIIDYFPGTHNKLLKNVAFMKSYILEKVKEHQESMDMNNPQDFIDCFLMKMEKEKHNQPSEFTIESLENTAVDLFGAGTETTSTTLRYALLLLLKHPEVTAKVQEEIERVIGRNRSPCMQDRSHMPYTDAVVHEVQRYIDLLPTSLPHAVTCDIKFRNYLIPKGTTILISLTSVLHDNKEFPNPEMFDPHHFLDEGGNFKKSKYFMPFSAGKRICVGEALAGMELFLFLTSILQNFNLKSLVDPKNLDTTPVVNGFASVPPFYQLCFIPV
A short description of series [7]: Protein binding in rabbit. The format is ADME, Oryctolagus cuniculus. To be noted: read-out: PB (converted).
Series [8] is described as follows: Effective permeability of the compound at pH 5 by PAMPA assay. The class given is ADME. The note with it: read-out: Peff.
Another series concerns the target CYP2D6 (Homo sapiens, UniProt P10635). The series is described as follows: Inhibition of CYP2D6 (unknown origin) at 10 uM. The class given is ADME.
In series [9] the target is T2, CYP3A4. The experiment in a line: Inhibition of CYP3A4 (unknown origin) at 10 uM. The class given is ADME.
The nature of series [10]: Protein binding in human. To be noted: read-out: PB (converted). The format is ADME.
In series [11] the target is T1, Motilin receptor. The series is described as follows: Potency index, ratio of GSK962040 EC50 to test compound EC50 for human GPR38 expressed in COS-7 cells. The class given is functional, cell-based.

Sequence of CYP2D6 (P10635 whole entry): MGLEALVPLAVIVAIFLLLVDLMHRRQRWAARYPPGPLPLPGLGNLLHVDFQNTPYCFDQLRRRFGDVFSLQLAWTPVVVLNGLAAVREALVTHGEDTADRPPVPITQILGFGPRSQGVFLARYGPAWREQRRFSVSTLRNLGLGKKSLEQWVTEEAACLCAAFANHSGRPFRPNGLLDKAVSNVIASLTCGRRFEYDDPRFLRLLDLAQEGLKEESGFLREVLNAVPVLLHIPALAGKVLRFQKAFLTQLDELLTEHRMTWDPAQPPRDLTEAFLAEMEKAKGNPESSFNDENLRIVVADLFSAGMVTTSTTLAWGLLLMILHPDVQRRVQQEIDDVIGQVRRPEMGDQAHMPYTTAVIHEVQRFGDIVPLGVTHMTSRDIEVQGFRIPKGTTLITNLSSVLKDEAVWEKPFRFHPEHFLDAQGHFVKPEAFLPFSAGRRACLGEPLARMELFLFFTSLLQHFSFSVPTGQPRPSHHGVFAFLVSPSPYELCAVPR

With `Cc1cc(N(C)C(=O)[C@H]2CC[C@H](Oc3ccc(F)cn3)CC2)ccc1CN1CCN[C@@H](C)C1`, the half-maximal effective concentration (EC50) in series [1] was 0.26 nM; on Motilin receptor [3] it was 4.6 nM. Besides, the logD in series [2] was determined as 1.9. Moreover, on CYP3A4 [4], the activity was found to be 47%.
As for `CC[C@H]1CN(Cc2ccc(N(C)C(=O)[C@H]3CC[C@H](Oc4ccnc(C#N)c4)CC3)cc2C)CCN1`, the figures for the half-maximal effective concentration (EC50) (in series [5]; in series [1]; at Motilin receptor [3]) were 4.8 nM, 1.2 nM and 11 nM, respectively. Moreover, the pH-dependent lipophilicity (logD) in series [2] was 1. Besides, the activity on CYP3A4 [4] came out at 68%.
Turning to `Cc1cc(N(C)C(=O)[C@H]2CC[C@H](Oc3cccc(CCO)c3)CC2)ccc1CN1CCN[C@@H](C)C1`, the 50% effective concentration (EC50) in series [1] stood at 0.51 nM; at Motilin receptor [3], 4.7 nM. This compound also came in with a pH-dependent lipophilicity (logD) in series [2] of 1.3. Also, the activity on CYP3A4 [4] came to 60%.
With `Cc1cc(N(C)C(=O)[C@H]2CC[C@H](Oc3cccc(CO)c3)CC2)ccc1CN1CCN[C@@H](C)C1`, the inhibition at 10 µM at CYP1A2 was determined as 13%; at CYP2C9, 5.3%; against CYP2D6, 8.8%; against CYP3A4 [9], 3.1%. The EC50 in series [5] was found to be 7.3 nM; in [1], 1.3 nM; at Motilin receptor [3], 5.3 nM. Also, the Papp in series [6] was 48 ×10⁻⁶ cm/s; in [8], 1.5 ×10⁻⁶ cm/s. In series [2], the logD amounted to 1.3. For the same compound, the Ratio EC50 in the series listed under Oryctolagus cuniculus turned out to be 11. Moreover, the figures for the fraction unbound in series [7] and in series [10] were 0.335 and 0.228, respectively. Further, the activity at CYP3A4 [4] was found to be 74%.
As to `C[C@@H]1CN(Cc2ccc(-c3cccnc3C(=O)N3CCC(Cc4ccc(F)cc4)CC3)cc2)C[C@H](C)N1`, the 50% effective concentration (EC50) in series [1] came to 3.8 nM; at Motilin receptor [3] it was 51 nM. Further, the Ratio EC50 at Motilin receptor [11] was found to be 20.
Compound `CCOCc1cccc(N[C@H]2CC[C@H](C(=O)N(C)c3ccc(CN4CCN[C@@H](C)C4)c(C)c3)CC2)c1` came in with a log distribution coefficient (logD) in series [2] of 2.5. This compound also showed a half-maximal effective concentration (EC50) on Motilin receptor [3] of 2.6 nM. In addition, the activity at CYP3A4 [4] amounted to 61%.
`C[C@H]1CN(Cc2ccc(NC(=O)[C@H]3CC[C@H](Oc4ccc(F)cc4)CC3)cc2)CCN1`: the half-maximal effective concentration (EC50) (in series [1]; at Motilin receptor [3]) was greater than 10000 nM throughout.
As to `C[C@H]1CN(Cc2ccc(N(C)C(=O)[C@H]3CC[C@H](Oc4ccc(F)cc4)CC3)cc2)CCN1`, the half-maximal effective concentration (EC50) in [5] came out at 28 nM; in [1], 2.6 nM; on Motilin receptor [3], 55 nM. The activity at CYP3A4 [4] was found to be 44%.
`Cc1cc(N(C)C(=O)[C@H]2CC[C@H](Oc3cccc(CC(=O)NC(C)C)c3)CC2)ccc1CN1CCN[C@@H](C)C1`: the EC50 in [1] is 0.26 nM; at Motilin receptor [3], 1.6 nM. In addition, in series [2], the logD came to 1.8. For the same compound, the activity on CYP3A4 [4] stood at 68%.
`CC[C@H]1CN(Cc2ccc(N(C)C(=O)[C@H]3CC[C@H](Oc4ccc(F)cc4)CC3)cc2C)CCN1`: a half-maximal effect on Motilin receptor [3] (EC50) was put at 350 nM. For the same compound, at CYP3A4 [4], the activity came to 29%.
Turning to `Cc1cc(N(C)C(=O)[C@H]2CC[C@H](Oc3ccc(F)cc3)CC2)ccc1CN1CCNCC1`, the EC50 came out at 1.3 nM in [1] and 46 nM on Motilin receptor [3]. Besides, the activity on CYP3A4 [4] was determined as 82%.
Turning to `Cc1cc(N(C)C(=O)[C@H]2CC[C@H](Oc3ccc(F)c(CO)c3)CC2)ccc1CN1CCN[C@@H](C)C1`, the concentration for a half-maximal effect (EC50) in series [1] was found to be 0.62 nM; on Motilin receptor [3], 7.5 nM. In addition, the logD in series [2] amounted to 1.6. Moreover, the activity on CYP3A4 [4] amounted to 54%.
Consider `Cc1cc(N(C)C(=O)[C@H]2CC[C@H](Oc3ccc(Cl)c(CO)c3)CC2)ccc1CN1CCN[C@@H](C)C1`, for which the EC50 in series [1] was determined as 0.13 nM; at Motilin receptor [3], 1.8 nM. For the same compound, the activity at CYP3A4 [4] worked out at 56%.
Consider `C[C@H]1CN(Cc2ccc(-c3cccnc3N3CCC(Nc4cccc(F)c4)CC3)cc2)CCN1`, for which the EC50 is 1.7 nM in [1] and 18 nM at Motilin receptor [3].
For `Cc1cc(N(C)C(=O)[C@H]2CC[C@H](Oc3cccc(C(=O)O)c3)CC2)ccc1CN1CCN[C@@H](C)C1`, the EC50 in series [1] is 1300 nM; at Motilin receptor [3] it was greater than 10000 nM. Further, in series [2], the pH-dependent lipophilicity (logD) was -0.4. In addition, the activity at CYP3A4 [4] was determined as 101%.
Regarding `Cc1cc(N(C)C(=O)[C@H]2CC[C@H](Oc3cc(CO)ccc3C)CC2)ccc1CN1CCN[C@@H](C)C1`, the EC50 is 1 nM in series [1] and 5.6 nM on Motilin receptor [3]. Further, on CYP3A4 [4], the activity came out at 54%.
As to `C[C@H]1CN(Cc2ccc(CC(=O)N3CCC(Nc4cccc(F)c4)CC3)cc2)CCN1` [CAMICINAL], the EC50 in series [5] worked out at 82.6 nM; in [1], 42 nM; at Motilin receptor [3], 970 nM.
As to `C[C@H]1CN(Cc2ccc(N(C)C(=O)[C@H]3CC[C@H](Oc4ccc(F)cc4)CC3)cc2Cl)CCN1`, the EC50 in [1] is 0.18 nM; at Motilin receptor [3], 2 nM. Moreover, at CYP3A4 [4], the activity worked out at 23%.
In the case of `Cc1cc(N(C)C(=O)[C@H]2CC[C@H](Oc3cccc(CC(C)(C)O)c3)CC2)ccc1CN1CCN[C@@H](C)C1`, the EC50 in series [1] is 1.1 nM; on Motilin receptor [3], 4.3 nM. In [2], this compound displayed a log distribution coefficient (logD) of 2. Also, on CYP3A4 [4], the activity came out at 50%.
Turning to `Cc1cc(CN2CCN[C@@H](C)C2)ccc1N(C)C(=O)[C@H]1CC[C@H](Oc2ccc(F)cc2)CC1`, the response at Motilin receptor [3] was half-maximal at 240 nM (EC50). Moreover, on CYP3A4 [4], the activity amounted to 40%.
Consider `CC[C@H](C)[C@H](NC(=O)[C@@H]1CCCN1C(=O)[C@@H](NC(=O)[C@@H](N)Cc1ccccc1)C(C)C)C(=O)N[C@@H](Cc1ccccc1)C(=O)N[C@H](C(=O)N[C@@H](Cc1ccc(O)cc1)C(=O)NCC(=O)N[C@@H](CCC(=O)O)C(=O)N[C@@H](CC(C)C)C(=O)N[C@@H](CCC(N)=O)C(=O)N[C@@H](CCCNC(=N)N)C(=O)N[C@@H](CCSC)C(=O)N[C@@H](CCC(N)=O)C(=O)N[C@@H](CCC(=O)O)C(=O)N[C@@H](CCCCN)C(=O)N[C@@H](CCC(=O)O)C(=O)N[C@@H](CCCNC(=N)N)C(=O)N[C@@H](CC(N)=O)C(=O)N[C@@H](CCCCN)C(=O)NCC(=O)N[C@@H](CCC(N)=O)C(=O)O)[C@@H](C)O`, for which the figures for the concentration giving a half-maximal response (EC50) (in [5]; in [1]; at Motilin receptor [3]) were 0.23 nM, 0.16 nM and 0.97 nM, respectively.
In the case of `Cc1cc(N(C)C(=O)[C@H]2CC[C@H](Oc3ccc(F)cc3)CC2)ccc1CN1CCN[C@@H](C)C1`, the EC50 in series [1] is 0.21 nM; at Motilin receptor [3], 2.1 nM. The pH-dependent lipophilicity (logD) in [2] worked out at 2.5. Besides, the activity at CYP3A4 [4] is 32%.

A word on the EC50: it is the concentration that produces a half-maximal response. As a reminder, the logD is the decadic logarithm of the distribution of all forms, ionised or not, between an organic phase and buffer at a given pH. Usually inhibition stands for the change of the read-out against control, counted positive when it falls.
